Measurements from patent US12264134B2 (Merck Sharp & Dohme LLC, priority 2018, dated 2025).

biological target: IDO1 (Homo sapiens, UniProt P14902); test: IDO1 Cellular Assay in HeLa Cells Stimulated with IFNγ; format: cell-based; settings: read-out: HeLa Cell Potency, IC50
Sequence (P14902 whole entry): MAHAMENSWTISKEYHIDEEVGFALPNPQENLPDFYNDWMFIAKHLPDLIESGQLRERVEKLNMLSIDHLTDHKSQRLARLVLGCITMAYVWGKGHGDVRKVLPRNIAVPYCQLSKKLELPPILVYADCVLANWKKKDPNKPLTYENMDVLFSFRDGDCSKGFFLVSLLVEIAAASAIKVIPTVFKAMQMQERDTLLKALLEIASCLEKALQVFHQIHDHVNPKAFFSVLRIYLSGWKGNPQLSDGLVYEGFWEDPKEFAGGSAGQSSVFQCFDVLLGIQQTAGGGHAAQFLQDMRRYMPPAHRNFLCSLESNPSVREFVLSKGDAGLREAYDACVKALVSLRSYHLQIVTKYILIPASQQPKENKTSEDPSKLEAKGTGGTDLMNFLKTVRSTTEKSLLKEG

How did the IC50 turn out when `C[C@@H]1CN(C(=O)c2nn(CC(=O)N3CCN(c4ccc(Cl)cc4)CC3)c3c2CCC3)C[C@H](C)O1` [Example 42, 1-[4-(4-chlorophenyl)piperazin-1-yl]-2-{3-[(2R,6S)-2,6-dimethylmorpholine-4-carbonyl]-5,6-dihydrocyclopenta[c]pyrazol-1(4H)-yl}ethan-1-one] was run?
Its IC50 is 147 nM.

How did the IC50 turn out when `Cc1cccc(N2CCN(C(=O)Cn3nc(C(=O)N4C[C@@H](C)O[C@@H](C)C4)c4c3CC[C@H](C(F)(F)F)C4)CC2)c1C` [Example 302, 2-[(5S)-3-[(2R,6S)-2,6-dimethylmorpholine-4-carbonyl]-5-(trifluoromethyl)-4,5,6,7-tetrahydro-1H-indazol-1-yl]-1-[4-(2,3-dimethylphenyl)piperazin-1-yl]ethan-1-one] was run?
Its IC50 is 24.9 nM.

`Cc1cccc(N2CCN(C(=O)Cn3nc(C(=O)N4CC[C@@H](C#N)C4)c4c3C[C@H]3C[C@@H]43)CC2)c1C` [Example 223, (3R)-1-[(3bR,4aR)-1-{2-[4-(2,3-dimethylphenyl)piperazin-1-yl]-2-oxoethyl}-3b,4,4a,5-tetrahydro-1H-cyclopropa[3,4]cyclopenta[1,2-c]pyrazole-3-carbonyl] pyrrolidine-3-carbonitrile] was tested. Which IC50 did it give?
Its IC50 is 1.49 nM.

How did the IC50 turn out when `Cc1c(Cl)cccc1N1CCN(C(=O)Cn2nc(C(=O)N3CC[C@H](O)[C@H](F)C3)c3c2CCC(F)C3)CC1` (stereo partly drawn) [Example 369, 1-(4-(3-chloro-2-methylphenyl)piperazin-1-yl)-2-(5-fluoro-3-((3R,4S)-3-fluoro-4-hydroxypiperidine-1-carbonyl)-4,5,6,7-tetrahydro-1H-indazol-1-yl)ethan-1-one] was run?
Its IC50 is 6.62 nM.

Which IC50 does the source give for `Cc1c(Cl)cccc1N1CCN(C(=O)Cn2nc(C(=O)N3CCC(OCCO)CC3)c3c2C[C@H]2C[C@@H]32)C2(CC2)C1` [Example 312, 1-(7-(3-chloro-2-methylphenyl)-4,7-diazaspiro[2.5]octan-4-yl)-2-((3bR,4aR)-3-(4-(2-hydroxyethoxy)piperidine-1-carbonyl)-3b,4,4a,5-tetrahydro-1H-cyclopropa[3,4]cyclopenta[1,2-c]pyrazol-1-yl)ethan-1-one] here?
The IC50 was 1.74 nM.

How did the IC50 turn out when `Cc1c(Cl)cccc1N1CCN(C(=O)Cn2nc(C(=O)N3CCN(C(=O)CO)CC3)c3c2CCC(F)C3)CC1` (stereo not shown) [Example 376, 1-(4-(3-chloro-2-methylphenyl)piperazin-1-yl)-2-(5-fluoro-3-(4-(2-hydroxyacetyl)piperazine-1-carbonyl)-4,5,6,7-tetrahydro-1H-indazol-1-yl)ethan-1-one] was run?
Its IC50 is 14 nM.

`Cc1cccc(N2CCN(C(=O)Cn3nc(C(=O)N4CCC(O)(CF)CC4)c4c3C[C@H]3C[C@@H]43)C3(CC3)C2)c1C` [Example 358] was tested. Which IC50 did it give?
Its IC50 is 1.59 nM.

`Cc1cccc(N2CCN(C(=O)Cn3nc(C(=O)N4CCOC(CO)C4)c4c3CCC4)CC2)c1C` (stereo not shown) [Example 156, 1-[4-(2,3-dimethylphenyl)piperazin-1-yl]-2-{3-[2-(hydroxymethyl)morpholine-4-carbonyl]-5,6-dihydrocyclopenta[c]pyrazol-1(4H)-yl}ethan-1-one] was tested. Which IC50 did it give?
Its IC50 is 29.3 nM.

With `Cc1cccc(N2CCN(C(=O)Cn3nc(C(=O)N4CCC5(CC4)CC5(F)F)c4c3CCC4)CC2)c1C` [Example 110, 2-[3-(1,1-difluoro-6-azaspiro[2.5]octane-6-carbonyl)-5,6-dihydrocyclopenta[c]pyrazol-1(4H)-yl]-1-[4-(2,3-dimethylphenyl)piperazin-1-yl]ethan-1-one] as the compound, how does the IC50 read?
The IC50 was 5.39 nM.

With `Cc1c(Cl)cccc1N1CCN(C(=O)Cn2nc(C(=O)N3CCN(CCO)CC3)c3c2C[C@H]2C[C@@H]32)C2(CC2)C1` [Example 316, 1-[7-(3-chloro-2-methylphenyl)-4,7-diazaspiro[2.5]octan-4-yl]-2-{(3bR,4aR)-3-[4-(2-hydroxyethyl)piperazine-1-carbonyl]-3b,4,4a,5-tetrahydro-1H-cyclopropa[3,4]cyclopenta[1,2-c]pyrazol-1-yl}ethan-1-one] as the compound, how does the IC50 read?
Its IC50 is 2.26 nM.
